Patent US9920039B2, “1,2,4-Oxadiazol compounds active against gram-positive pathogens” (UNIVERSITÀ DEGLI STUDI DI MILANO—BICOCCA, priority 2013, dated 2018)
In brackets after ≈: the same amount, converted by molar mass. Like-named read-outs stand apart in the source and are kept apart here.

Tests used:
[1] = tested on: Staphylococcus aureus ATCC 29213; test: MIC by broth microdilution (CLSI); assay type: cell-based; conditions: ATCC 29213
From the text: (§1) Several well characterized for their antibiotic-susceptibility phenotype Staphylococcus aureus isolates were used for the determination of the in vitro antibacterial activity of the studied compounds. In particular, S. aureus ATCC 29213 reference standard strain and S. aureus M923 (collection strain) were used as MSSA strains. Among MRSA, S. aureus MU50 (ATCC 700699) reference standard strain and two collection strains (433 and F511) were used for susceptibility assays.
(§2) The in vitro antibacterial activity of the new agents was studied by determining their minimum inhibitory concentrations (MICs) by means of the broth microdilution method according to the Clinical and Laboratory Standards Institute (CLSI) guidelines.[16] Briefly, serial 2-fold dilutions of each compound were made using the Cation adjusted Mueller-Hinton broth (CAMHB) in microtitre plates with 96 wells. Dimethyl sulfoxide (DMSO) was used as solvent for all the synthesized compounds. An equal volume of the bacterial inoculum (1×10^6 CFU/mL) was added to each well on the microtitre plate containing 0.05 mL of the serial antibiotic dilutions. The microtitre plate was then incubated at 37° C. for 18-24 h after which each well was analysed for the presence of bacterial growth. The MIC was defined as the lowest concentration of antimicrobial agent able to cause inhibition of bacterial growth as shown by the lack of turbidity of the culture medium. […] Final DMSO concentrations were also taken into account in all the biological assays.
(§3) The antimicrobial activities, summarized in Table 2, were determined by the “gold standard” method of broth microdilution, as recommended by the Clinical Laboratory Standards Institute (CLSI) (See the Experimental Section). […] In detail, the bacterial strains were tested: Staphylococcus aureus ATCC 29213, a clinical strain of methicillin-susceptible S. aureus (M923), S. aureus MU50 (methicillin-resistant—MRSA), and two methicillin-resistant clinical strains, 433 and F511.
(§4) The antimicrobial activities, summarized in Table 3, were determined by the “gold standard” method of broth microdilution, as recommended by the Clinical Laboratory Standards Institute (CLSI) (See the Experimental Section). The minimum inhibitory concentration (MIC) values were expressed in μg/mL. […] In detail, the tested bacterial strains were: Staphylococcus aureus ATCC 29213, a clinical strain of methicillin-susceptible S. aureus (M923), S. aureus MU50 (methicillin-resistant—MRSA) strain, and two methicillin-resistant clinical strains, 433 and F511.

[2] = tested on: methicillin-susceptible S. aureus (M923); test: MIC by broth microdilution (CLSI); assay type: cell-based, Staphylococcus aureus; conditions: MSSA M923
From the text: as §1, §2, §3, §4

[3] = tested on: MRSA clinical strain F511; test: MIC by broth microdilution (CLSI); assay type: cell-based, Staphylococcus aureus
From the text: as §1, §2, §3, §4

MRSA clinical strain 433 = test: MIC by broth microdilution (CLSI); assay type: cell-based, Staphylococcus aureus; conditions: MRSA 433
From the text: as §1, §2, §3, §4

[4] = tested on: S. aureus MU50 (ATCC 700699), methicillin-resistant (MRSA); test: MIC by broth microdilution (CLSI); assay type: cell-based, Staphylococcus aureus
From the text: as §1, §2, §3, §4

[5] = tested on: 12 MRSE all LZD sensitive; test: MIC on strain panel (Table 4); assay type: cell-based, Staphylococcus epidermidis
From the text: as §2

[6] = tested on: 6 ATCC (4MSSA, 2 MRSA)plus45 MRSA all LZD sensitive; test: MIC on strain panel (Table 4); assay type: cell-based, Staphylococcus aureus; conditions: 6 ATCC plus 45 MRSA; for MIC-range: tested range ≤0.06 - >128
From the text: as §2

[7] = Staphylococcus aureus, ATCC29213, racemic mixture, Table 2, read-out: MIC
[8] = Staphylococcus aureus, racemic mixture, Table 2, read-out: MIC
[9] = Staphylococcus aureus, ATCC29213, racemic form, Table 3, read-out: MIC
[10] = Staphylococcus aureus, racemic form, Table 3, read-out: MIC

SMILES	melting point [°C]	MIC [1, 7] [µg/mL]	MIC [2, 8] [µg/mL]	MIC [3, 8] [µg/mL]	MIC (MRSA clinical strain 433; [8]) [µg/mL]	MIC [4, 8] [µg/mL]	also measured
Cc1noc(-c2ccc(N3CC(CN=[N+]=[N-])OC3=O)cc2)n1 (racemic) [Compound A2a, 3-(4′-(3″-methyl-1,2,4-oxadiazol-5-yl)-phenyl)-5-(azidometil)-oxazolidin-2-one]	133.9 to 135	> 50	> 50	> 50	> 50	> 50	
CC(=O)NCC1CN(c2ccc(-c3nc(C)no3)c(F)c2)C(=O)O1 (racemic) [Compound A3b, 3-(3′-fluoro-4′-(3″-methyl-1,2,4-oxadiazol-5-yl)-phenyl)-5-(N-acetylaminomethyl)-oxazolidin-2-one]	184 to 186	12.5 (≈ 37.4 µM)	6.25 (≈ 18.7 µM)	12.5 (≈ 37.4 µM)	1.6 (≈ 4.79 µM)	6.25 (≈ 18.7 µM)	
Cc1noc(-c2ccc(N3CC(Cn4cccn4)OC3=O)cc2F)n1 (racemic) [Compound A5b]		> 50	> 50	> 50	> 50	> 50	
Cc1noc(-c2ccc(N3CC(Cn4ccnc4)OC3=O)cc2F)n1 (racemic) [Compound A6b]		> 50	> 50	> 50	> 50	> 50	
Cc1noc(-c2ccc(N3CC(Cn4cncn4)OC3=O)cc2)n1 (racemic) [Compound A7a]		> 50	> 50	> 50	> 50	> 50	
Cc1noc(-c2ccc(N3CC(Cn4cncn4)OC3=O)cc2F)n1 (racemic) [Compound A7b]		> 50	> 50	> 50	> 50	> 50	
Cc1noc(-c2ccc(N3CC(Cn4ccnn4)OC3=O)cc2)n1 (racemic) [Compound B1a]	208 to 210						MIC [1, 9]: 25 µg/mL (≈ 76.6 µM); MIC [2, 10]: 25 µg/mL (≈ 76.6 µM); MIC [3, 10]: 12.5 µg/mL (≈ 38.3 µM); MIC (MRSA clinical strain 433; [10]): 12.5 µg/mL (≈ 38.3 µM); MIC [4, 10]: 3.12 µg/mL (≈ 9.58 µM)
Cc1noc(-c2ccc(N3CC(Cn4ccnn4)OC3=O)cc2F)n1 (racemic) [Compound B1b]	176.2 to 177.8						MIC [1, 9]: 25 µg/mL (≈ 72.6 µM); MIC [2, 10]: 25 µg/mL (≈ 72.6 µM); MIC [3, 10]: 12.5 µg/mL (≈ 36.3 µM); MIC (MRSA clinical strain 433; [10]): 6.25 µg/mL (≈ 18.2 µM); MIC [4, 10]: 1.6 µg/mL (≈ 4.65 µM)
Cc1noc(-c2ccc(N3CC(CN=C=S)OC3=O)cc2)n1 (racemic) [Compound B2a]							MIC [1, 9]: > 50 µg/mL; MIC [2, 10]: > 50 µg/mL; MIC [3, 10]: 50 µg/mL (≈ 158 µM); MIC (MRSA clinical strain 433; [10]): > 50 µg/mL; MIC [4, 10]: > 50 µg/mL
Cc1noc(-c2ccc(N3CC(CN=C=S)OC3=O)cc2F)n1 (racemic) [Compound B2b]							MIC [1, 9]: > 50 µg/mL; MIC [2, 10]: > 50 µg/mL; MIC [3, 10]: > 50 µg/mL; MIC (MRSA clinical strain 433; [10]): > 50 µg/mL; MIC [4, 10]: > 50 µg/mL
Cc1noc(-c2ccc(N3CC(CNC(N)=S)OC3=O)cc2)n1 (racemic) [Compound B3a]							MIC ([1]; racemic form, Table 3): >50 µg/mL; MIC ([2]; racemic form, Table 3): >50 µg/mL; MIC ([3]; racemic form, Table 3): >50 µg/mL; MIC (MRSA clinical strain 433; racemic form, Table 3): >50 µg/mL; MIC ([4]; racemic form, Table 3): >50 µg/mL
Cc1noc(-c2ccc(N3CC(CNC(N)=S)OC3=O)cc2F)n1 (racemic) [Compound B3b]							MIC ([1]; racemic form, Table 3): >50 µg/mL; MIC ([2]; racemic form, Table 3): >50 µg/mL; MIC ([3]; racemic form, Table 3): >50 µg/mL; MIC (MRSA clinical strain 433; racemic form, Table 3): >50 µg/mL; MIC ([4]; racemic form, Table 3): >50 µg/mL
CNC(=S)NCC1CN(c2ccc(-c3nc(C)no3)cc2)C(=O)O1 (racemic) [Compound B4a, 1-((3-(4-(3-methyl-1,2,4-oxadiazol-5-yl)phenyl)-oxazolidin-2-one-5-yl)methyl)-3-methylthiourea]	189.4 to 191.8						MIC50 ([5]; Staphylococcus epidermidis, read-out: MIC50): 64 µg/mL (≈ 184 µM); MIC90 ([5]; Staphylococcus epidermidis, read-out: MIC90): > 128 µg/mL; MIC [1, 9]: 6.25 µg/mL (≈ 18 µM); MIC-range [6]: 1 to 16 µg/mL; MIC50 ([6]; Staphylococcus aureus, read-out: MIC50): 8 µg/mL; MIC90 ([6]; Staphylococcus aureus, read-out: MIC90): 16 µg/mL; MIC [2, 10]: 6.25 µg/mL (≈ 18 µM); MIC [3, 10]: 6.25 µg/mL (≈ 18 µM); MIC (MRSA clinical strain 433; [10]): 3.12 µg/mL (≈ 9 µM); MIC [4, 10]: 1.6 µg/mL (≈ 4.61 µM)
CC(=O)NCC1CN(c2ccc(-c3nc(C)no3)cc2)C(=O)O1 (centres unmarked) [Compound A3a, 3-(4′-(3″-methyl-1,2,4-oxadiazol-5-yl)-phenyl)-5-(N-acetylaminomethyl)-oxazolidin-2-one]	214 to 216	12.5 (≈ 39.5 µM)	6.25 (≈ 19.8 µM)	12.5 (≈ 39.5 µM)	1.6 (≈ 5.06 µM)	6.25 (≈ 19.8 µM)	
CNC(=S)NC[C@@H]1CN(c2ccc(-c3nc(C)no3)cc2)C(=O)O1 [Compound B4aR]							MIC50 [5]: >128 µg/mL; MIC90 [5]: >128 µg/mL; MIC range [5]: >128 µg/mL; MIC50 [6]: >128 µg/mL; MIC90 [6]: >128 µg/mL
CNC(=S)NC[C@H]1CN(c2ccc(-c3nc(C)no3)cc2)C(=O)O1 [Compound B4aS]							MIC50 [5]: 16 µg/mL (≈ 46.1 µM); MIC90 [5]: 32 µg/mL (≈ 92.1 µM); MIC range [5]: 8 to 32 µg/mL; MIC50 [6]: 2 µg/mL; MIC90 [6]: 4 µg/mL; MIC-range [6]: 0.5 to 8 µg/mL
CNC(=S)NC[C@@H]1CN(c2ccc(-c3nc(C)no3)c(F)c2)C(=O)O1 [Compound B4bR]							MIC50 [5]: >128 µg/mL; MIC90 [5]: >128 µg/mL; MIC50 [6]: >128 µg/mL; MIC90 [6]: >128 µg/mL
CNC(=S)NC[C@H]1CN(c2ccc(-c3nc(C)no3)c(F)c2)C(=O)O1 [Compound B4bS]							MIC50 [5]: 8 µg/mL (≈ 21.9 µM); MIC90 [5]: 8 µg/mL (≈ 21.9 µM); MIC50 [6]: 2 µg/mL; MIC90 [6]: 4 µg/mL; MIC-range [6]: 0.5 to 8 µg/mL

The next lines start with results.

melting point [°C]	MIC [1, 7] [µg/mL]	MIC [2, 8] [µg/mL]	MIC [3, 8] [µg/mL]	MIC (MRSA clinical strain 433; [8]) [µg/mL]	MIC [4, 8] [µg/mL]	SMILES	also measured
145 to 147	> 50	> 50	50 (≈ 130 µM)	25 (≈ 64.9 µM)	50 (≈ 130 µM)	Cc1noc(-c2ccc(N3CC(CI)OC3=O)cc2)n1 (racemic) [Compound A1a, 3-(4′-(3″-methyl-1,2,4-oxadiazol-5″-yl)-phenyl)-5-(iodomethyl)-oxazolidin-2-one]	
148 to 149	> 50	> 50	> 50	50 (≈ 124 µM)	50 (≈ 124 µM)	Cc1noc(-c2ccc(N3CC(CI)OC3=O)cc2F)n1 (racemic) [Compound A1b, 3-(3′-fluoro-4′-(3″-methyl-1,2,4-oxadiazol-5″-yl)-phenyl)-5-(iodomethyl)-oxazolidin-2-one]	
126.2 to 127.7	> 50	> 50	> 50	> 50	> 50	Cc1noc(-c2ccc(N3CC(CN=[N+]=[N-])OC3=O)cc2F)n1 (racemic) [Compound A2b, 3-(3′-fluoro-4′-(3″-methyl-1,2,4-oxadiazol-5-yl)-phenyl)-5-(azidometil)-oxazolidin-2-one]	
	3.13 (≈ 9.42 µM)	1.6 (≈ 4.81 µM)	1.6 (≈ 4.81 µM)	1.6 (≈ 4.81 µM)	≤ 0.4	CC(=S)NCC1CN(c2ccc(-c3nc(C)no3)cc2)C(=O)O1 (racemic) [Compound A4a, 3-(4′-(3″-methyl-1,2,4-oxadiazol-5-yl)-phenyl)-5-(N-thioacetylaminomethyl)-oxazolidin-2-one]	
	> 50	> 50	> 50	> 50	> 50	Cc1noc(-c2ccc(N3CC(Cn4cccn4)OC3=O)cc2)n1 (racemic) [Compound A5a]	
	> 50	> 50	> 50	> 50	> 50	Cc1noc(-c2ccc(N3CC(Cn4ccnc4)OC3=O)cc2)n1 (racemic) [Compound A6a]	
